The source of these data is patent publication US20070027143A1, “Novel substituted 2,3-benzodiazepine derivatives” (priority 2003, published 2007).

Structures can show the parent of a compound that is named as a salt. Marks after values point to notes of the source that are not given here.

The first data set concerns rats. Put plainly: Inhibition of focal ischemia, middle cerebral artery occlusion (MCAO) test. The settings on record: 2 mg/kg iv. 6x in every 30 min, first treatment 120 min after occlusion. Format: in vivo. Here is the method:
The focal anti-ischemic activity of the compounds of formula (I) or (II) of the present invention was measured by the “middle cerebral artery occlusion” (MCAO) test (Bartus Stroke 11:2265 (1994) and Sydserff et al, Brit. J. Pharmacol. 114:1631 (1995)). […] After a histological process (TTC staining) 24 h later, the infarcted area was determined by a computer assisted scanner program and was compared to the results obtained in a control group treated with the vehicle.
Regarding `CC1=NN=C(c2ccc(N)cc2)c2cc3c(cc2C1)OCO3` [GYKI 52466 HCl, 5-(4-aminophenyl)-8-methyl-9H-1,3-dioxolo[4,5-h][2,3]benzodiazepine, reference compound], the “Decrease of the infracted area in % compared to that of the control” value (from here on “Decrease of the infracted area in %”) is given as 39* %.

Still in this data set, the particulars now being: 5 mg/kg iv. 6x in every 30 min, first treatment 30 min after occlusion.
Regarding `CC1=NN=C(c2ccc(N)cc2)c2cc3c(cc2C1)OCO3` [GYKI 52466 HCl, 5-(4-aminophenyl)-8-methyl-9H-1,3-dioxolo[4,5-h][2,3]benzodiazepine, reference compound], the “Decrease of the infracted area in %” value is reported as 34* %.

Still in this data set, the particulars now being: 5 mg/kg iv. 6x in every 30 min, first treatment 120 min after occlusion.
For the molecule `CC1=NN=C(c2ccc(N)cc2)c2cc3c(cc2C1)OCO3` [GYKI 52466 HCl, 5-(4-aminophenyl)-8-methyl-9H-1,3-dioxolo[4,5-h][2,3]benzodiazepine, reference compound], the “Decrease of the infracted area in %” value is 47** %.

Tested on in the next data set: not given
Test: not given
Conditions: not given
As usually defined, the melting point is the temperature of the solid-liquid transition. `CC(=O)OCc1nnc(N2N=C(c3ccc(N)c(C)c3)c3cc4c(cc3C[C@H]2C)OCO4)s1` [Example 172, (R)-7-(5-Acetoxymethyl-1,3,4-thiadiazol-2-yl)-5-(4-amino-3-methylphenyl)-8-methyl-8,9-dihydro-7H-1,3-dioxolo[4,5-h][2,3]benzodiazepine] returned a melting point of 204 to 206 °C. Still for that read-out and setting: the result for `CCc1nnc(N2N=C(c3ccc([N+](=O)[O-])cc3)c3cc4c(cc3CC2C)OCO4)s1` (racemic) [Example 30, (±)-7-(5-Ethyl-1,3,4-thiadiazol-2-yl)-8-methyl-5-(4-nitrophenyl) 8,9-dihydro-7H-1,3-dioxolo[4,5-h][2,3]benzodiazepine] reads 163 to 164 °C; that for `COc1ccc2c(c1)C(c1ccc(N)cc1)=NN(c1nnc(C)s1)C(C)C2` (racemic) [Example 98, (±)-1-(4-Aminophenyl)-4-methyl-3-(5-methyl-1,3,4-thiadiazol-2-yl)-8-methoxy-4,5-dihydro-3H-[2,3]benzodiazepine], 180 to 184 °C; that for `Cc1cc(N2N=C(c3ccc(N)cc3)c3cc4c(cc3CC2C)OCO4)on1` (racemic) [Example 185, (±)-5-(4-Aminophenyl)-8-methyl-7-(3-methyl-isoxazol-5-yl)-8,9-dihydro-7H-1,3-dioxolo-[4,5-h][2,3]benzodiazepine], 100 to 103 °C. In turn, `Cc1cc(C2=NN(C3=NCCS3)[C@H](C)Cc3cc4c(cc32)OCO4)ccc1N` [Example 163, (R)-5-(4-Amino-3-methylphenyl)-8-methyl-7-(4,5-dihydro-thiazol-2-yl)-8,9-dihydro-7H-1,3-dioxolo-[4,5-h][2,3]benzodiazepine] came in with a melting point of 125 to 128 °C. The same measure, in the same setting: then `COc1ccc2c(c1)C(c1ccc(N)cc1)=NN(c1nccs1)C(C)C2` (racemic) [Example 76, (±)-1-(4-Aminophenyl)-4-methyl-8-methoxy-3-(2-thiazolyl)-4,5-dihydro-3H-[2,3]benzodiazepine], with 105 to 107 °C.

In turn, `Cc1nc(N2N=C(c3ccc(N)cc3)c3cc4c(cc3CC2C)OCO4)cs1` (racemic) [Example 110, (±)-5-(4-Aminophenyl)-8-methyl-7-(2-methyl-thiazol-4-yl)-8,9-dihydro-7H-1,3-dioxolo-[4,5-h][2,3]benzodiazepine] returned a melting point of 132 to 135 °C. The same measure, in the same setting: then `CC(=O)Nc1ccc(C2=NN(C3=NCCS3)[C@@H](C)Cc3cc4c(cc32)OCO4)cc1` [Example 126, (S)-5-(4-Acetylaminophenyl)-7-(4,5-dihydro-thiazol-2-yl)-8-methyl-8,9-dihydro-7H-1,3-dioxolo-[4,5-h][2,3]benzodiazepine], with 148 to 154 °C; and `Cc1cc(C2=NN(c3nccs3)C(C)Cc3cc4c(cc32)OCO4)ccc1N` (racemic) [Example 75, (±)-5-(4-Amino-3-methylphenyl)-8-methyl-7-(2-thiazolyl)-8,9-dihydro-7H-1,3-dioxolo-[4,5-h][2,3]benzodiazepine], with 225 to 227 °C; and `CC1Cc2cc3c(cc2C(c2ccc(N)cc2)=NN1C1=NCCS1)OCO3` (racemic) [Example 68, (±)-5-(4-Aminophenyl)-7-(4,5-dihydro-thiazol-2-yl)-8-methyl-8,9-dihydro-7H-1,3-dioxolo-[4,5-h][2,3]benzodiazepine], with 145 to 150 °C. Same read-out and setting: then `CC1Cc2cc3c(cc2C(c2ccc(N)cc2)=NN1C1=NC(=O)CS1)OCO3` (racemic) [Example 71, (±)-5-(4-Aminophenyl)-7-(4,5-dihydro-4-oxo-thiazol-2-yl)-8-methyl-8,9-dihydro-7H-1,3-dioxolo-[4,5-h][2,3]benzodiazepine], with 218 to 220 °C; and `Cc1nnc(N2N=C(c3cc(C)c(N)c(C)c3)c3cc4c(cc3C[C@H]2C)OCO4)s1` [Example 190, (R)-5-(4-Amino-3,5-dimethylphenyl)-8-methyl-7-(5-methyl-1,3,4-thiadiazol-2-yl)-8,9-dihydro-7H-1,3-dioxolo[4,5-h][2,3]benzodiazepine], with 280 to 281 °C. As to `Cc1cc(C2=NN(c3nnc(CC#N)s3)[C@H](C)Cc3cc4c(cc32)OCO4)ccc1N` [Example 173, (R)-5-(4-Amino-3-methylphenyl)-7-(5-cyanomethyl-1,3,4-thiadiazol-2-yl)-8-methyl-8,9-dihydro-7H-1,3-dioxolo[4,5-h][2,3]benzodiazepine], the melting point was in the range of 135 to 140 °C.

`Cc1cc(C2=NN(c3nnc(C(C)C)s3)[C@H](C)Cc3cc4c(cc32)OCO4)ccc1N` [Example 169, (R)-5-(4-Amino-3-methylphenyl)-7-(5-isopropyl-1,3,4-thiadiazol-2-yl)-8-methyl-8,9-dihydro-7H-1,3-dioxolo[4,5-h][2,3]benzodiazepine] came in with a melting point of 134 to 140 °C. In turn, `CC1Cc2cc3c(cc2C(c2ccc(N)cc2)=NN1C1N=CNN1)OCO3` (racemic) [Example 113, (±)-5-(4-Aminophenyl)-8-methyl-7-(1H(2H)1,2,4-triazol-3-yl)-8,9-dihydro-7H-1,3-dioxolo-[4,5-h][2,3]benzodiazepine] had a melting point of 178 to 181 °C.

`CC(=O)Nc1ccc(C2=NN(c3ncccn3)C(C)Cc3cc4c(cc32)OCO4)cc1` (racemic) [Example 128, (±)-5-(4-Acetylaminophenyl)-8-methyl-7-(2-pyrimidinyl)-8,9-dihydro-7H-1,3-dioxolo-[4,5-h][2,3]benzodiazepine] showed a melting point of 162 to 163 °C.

Turning to `CC1Cc2cc3c(cc2C(c2ccc(N)cc2)=NN1c1ncnn1C)OCO3` (racemic) [Example 115, (±)-5-(4-Aminophenyl)-8-methyl-7-(2-methyl-2H-1,2,4-triazol-3-yl)-8,9-dihydro-7H-1,3-dioxolo-[4,5-h][2,3]benzodiazepine], the melting point lay in the range of 182 to 183 °C. Still for that read-out and setting: the result for `CSCc1nnc(N2N=C(c3ccc([N+](=O)[O-])c(C)c3)c3cc4c(cc3C[C@H]2C)OCO4)s1` [Example 143, (R)-8-Methyl-5-(3-methyl-4-nitrophenyl)-7-(5-methylthiomethyl-1,3,4-thiadiazol-2-yl)-8,9-dihydro-7H-1,3-dioxolo[4,5-h][2,3]benzodiazepine] reads 132 to 134 °C; that for `CC1Cc2cc3c(cc2C(c2ccc(N)cc2)=NN1C1=NCCO1)OCO3` (racemic) [Example 82, (±)-5-(4-Aminophenyl)-7-(4,5-dihydro-oxazol-2-yl)-8-methyl-8,9-dihydro-7H-1,3-dioxolo-[4,5-h][2,3]benzodiazepine], 166 to 167 °C.

`CC1Cc2cc3c(cc2C(c2ccc(N)cc2)=NN1C1=NC(=O)C(C)(C)S1)OCO3` (racemic) [Example 193, (±)-5-(4-Aminophenyl)-8-methyl-7-(5,5-dimethyl-4-oxo-4,5-dihydrothiazol-2-yl)-8,9-dihydro-7H-1,3-dioxolo-[4,5-h][2,3]benzodiazepine] gave a melting point of 124 to 130 °C. Still for that read-out and setting: the result for `Cc1cc(C2=NN(c3nnc(CO)s3)[C@H](C)Cc3cc4c(cc32)OCO4)ccc1N` [Example 171, (R)-5-(4-Amino-3-methylphenyl)-7-(5-hydroxymethyl-1,3,4-thiadiazol-2-yl)-8-methyl-8,9-dihydro-7H-1,3-dioxolo[4,5-h][2,3]benzodiazepine] reads 184 to 186 °C; that for `Cc1cc(C2=NN(c3nnc(CC#N)s3)[C@H](C)Cc3cc4c(cc32)OCO4)ccc1[N+](=O)[O-]` [Example 142, (R)-7-(5-Cyanomethyl-1,3,4-thiadiazol-2-yl)-8-methyl-5-(3-methyl-4-nitrophenyl)-8,9-dihydro-7H-1,3-dioxolo[4,5-h][2,3]benzodiazepine], 118 to 122 °C.
